Data taken from article PMC5263243, “PPE Surface Proteins Are Required for Heme Utilization by Mycobacterium tuberculosis” (mBio, 2017).

Tests used:
[1] = target: T1, PPE62 (Mycobacterium tuberculosis, UniProt P9WHX7); assay: SPR (Biacore T200, NTA chip, […] binding model); conditions: read-out: Heme dissociation constant
T1 construct: PPE62His6 (Rv3533c)
T1 sequence (P9WHX7 1-582): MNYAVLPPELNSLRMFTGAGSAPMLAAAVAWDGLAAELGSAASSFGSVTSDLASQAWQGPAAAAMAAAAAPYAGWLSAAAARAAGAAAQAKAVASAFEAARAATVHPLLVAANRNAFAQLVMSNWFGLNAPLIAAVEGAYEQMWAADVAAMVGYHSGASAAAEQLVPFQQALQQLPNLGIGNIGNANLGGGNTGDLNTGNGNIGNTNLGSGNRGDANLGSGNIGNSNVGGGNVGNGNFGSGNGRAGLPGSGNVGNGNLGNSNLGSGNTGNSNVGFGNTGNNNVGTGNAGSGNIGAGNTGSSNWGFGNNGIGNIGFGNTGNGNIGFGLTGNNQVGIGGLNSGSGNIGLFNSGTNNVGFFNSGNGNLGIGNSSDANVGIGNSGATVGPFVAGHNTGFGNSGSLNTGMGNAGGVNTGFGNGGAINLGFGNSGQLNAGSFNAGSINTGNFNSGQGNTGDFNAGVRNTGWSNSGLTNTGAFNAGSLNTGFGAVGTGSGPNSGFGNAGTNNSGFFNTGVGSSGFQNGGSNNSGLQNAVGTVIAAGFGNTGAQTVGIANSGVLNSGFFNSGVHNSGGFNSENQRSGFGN

[2] = target: PPE36 (Mycobacterium tuberculosis, UniProt P9WI01); assay: biochemical
PPE36, sequence (P9WI01 whole entry): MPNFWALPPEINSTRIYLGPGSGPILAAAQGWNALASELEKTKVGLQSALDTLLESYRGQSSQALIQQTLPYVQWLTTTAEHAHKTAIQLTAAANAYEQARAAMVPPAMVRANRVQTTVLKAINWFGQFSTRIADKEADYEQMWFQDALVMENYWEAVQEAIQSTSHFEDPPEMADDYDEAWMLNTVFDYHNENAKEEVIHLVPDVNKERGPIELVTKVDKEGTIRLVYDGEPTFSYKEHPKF
PPE36, sequence (L7N6B5 1-98 partner): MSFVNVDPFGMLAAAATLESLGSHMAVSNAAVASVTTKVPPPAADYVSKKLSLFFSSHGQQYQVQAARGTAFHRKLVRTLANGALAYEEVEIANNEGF

`C=CC1=C(C)C2=Cc3c(C=C)c(C)c4[n]3[Fe]([Cl])[n]3c(c(C)c(CCC(=O)O)c3=CC3=NC(=C4)C(C)=C3CCC(=O)O)=CC1=N2` [hemin] gave a Kd [1] of 0.4 mM and a Kd [2] of 4 mM.
